# Assay results as given in US20220186188A1, “Method for Obtaining Pancreatic Progenitor Cells and Pancreatic Islet Beta Cells By Means of Differentiation of Human Pluripotent Stem Cells” (Asia Regenerative Medicine, Ltd., priority 2019, published 2022).
# Tests used:
# [1] = tested on: pancreatic progenitor cells and pancreatic islet β cells differentiated from human embryonic stem cells; assay: Real-time fluorescence quantitative PCR of PDX1, NKX6-1 and INS mRNA (human embryonic stem cells); type: cell-based; conditions: qPCR
# Experimental: (§1) a pancreatic progenitor cell medium was prepared, the medium in step 1) was replaced with the pancreatic progenitor cell medium, and the cells were cultured in a carbon dioxide incubator at 37 degrees Celsius for 5 days, during which the medium was replaced every day, wherein the composition of the pancreatic progenitor cell medium was: with an MCDB131 medium as a basic medium, and the following components at the working concentrations were further included: 0.5% of bovine serum albumin (BSA), 1.5 g/L of sodium bicarbonate, 1×glutamine (GlutaMAX), 10 mM glucose, 0.25 M vitamin C, 1×insulin-transferrin-selenium-ethanolamine additive (ITS-X), 50 ng/ml of fibroblast growth factor 7 (KGF), 0.5 μM SANT1 (with smo as an inhibitor target), 100 nM retinoic acid (TTNPB), 500 nM phorbol 12,13-dibutyrate (PDBu), 2 μM ALK inhibitor (K02288), and 2 μM WNT signaling pathway inhibitor XAV-939 (not added in a control group), with the concentrations all being final concentrations.
# b. pancreatic islet β cell medium 2 was prepared, the pancreatic islet β cell medium 1 in above-mentioned step a was replaced with the pancreatic islet β cell medium 2, and the cells were cultured in a carbon dioxide incubator at 37 degrees Celsius for 5 days, during which the medium was replaced every day, wherein the composition of the pancreatic islet β cell medium 1 was: with an MCDB131 medium as a basic medium, and the following components at the working concentrations were further included: 20 mM glucose, 2% of bovine serum albumin (BSA), 1.5 g/L of sodium bicarbonate, 1×glutamine (GlutaMAX), 0.05 mM vitamin C, 1×insulin-transferrin-selenium-ethanolamine additive (ITS-X), 2 μM ALK inhibitor (K02288), 1 μM triiodothyronine (T3), 10 μM YO-01027 (Notch signaling pathway inhibitor), and 10 μM zinc sulfate, with the concentrations all being final concentrations; and the composition of the pancreatic islet β cell medium 2 was: with an MCDB131 medium as a basic medium, and the following components at the working concentrations were further included: 20 mM glucose, 2% of bovine serum albumin (BSA), 1.5 g/L of sodium bicarbonate, 1×glutamine (GlutaMAX), 0.05 mM vitamin C, 1×insulin-transferrin-selenium-ethanolamine additive (ITS-X), 1 μM triiodothyronine (T3), 10 μM Repsox (ALK5 inhibitor), 10 μM vitamin E, 10 μg/ml of heparin sodium, 2 μM R428 (Axl inhibitor), 10 μM zinc sulfate, and 10 mM N-acetyl-L-cysteine (N-cys), with the concentrations all being final concentrations.
# Cells cultured in a 24-well plate were collected, and washed twice with 500 μl of DPBS at first, then covered with 200 μl of chymotrypsin-trypsin (Trypsin), and placed at 37° C. for 5 minutes of digestion. Whether the cells float in pieces was observed, and the digestion was terminated using 500 μl of DMEM/F12 medium, then the product was centrifuged at 1000 rpm for 3 minutes, the supernatant was removed, and cell pellets were collected and added to a new RNase-free centrifuge tube. […]
# [2] = tested on: pancreatic progenitor cells differentiated from human embryonic stem cells; assay: Flow cytometry detection of PDX1 in the pancreatic progenitor cell stage (human embryonic stem cells); type: cell-based; conditions: 2 μM inhibitor in pancreatic progenitor cell medium, 5 days, compared with control group without WNT inhibitor
# Experimental: as §1, with “concentrations. […]” for “concentrations.”
# [3] = 2 μM inhibitor in pancreatic progenitor cell stage, GAPDH reference
smiles,measurement,setting,value
Oc1nc(-c2ccc(C(F)(F)F)cc2)nc2c1CSCC2 [XAV-939],transcription level of the insulin gene INS in the mature pancreatic islet β cell stage,[1]; 2 μM inhibitor added in pancreatic progenitor cell stage,greatly increased
same,relative expression of mRNA of NKX6-1 in pancreatic progenitor cells,[1]; [3],significantly increased
same,relative expression of mRNA of PDX1 in pancreatic progenitor cells,[1]; [3],significantly increased
same,PDX1-positive pancreatic progenitor cells (flow cytometry),[2],significantly increased
